Laboratory results from patent US9833497B2, “Human originated EGF domain proteins and use of the same” (CHENGDU SOURCEBIO LIMITED-LIABILITY COMPANY, priority 2013, dated 2017).

Tests used:
Type in all cases: cell-based
[1] = system: Moraxella catarrhalis; experiment: MIC against Gram-negative bacteria: Moraxella catarrhalis; settings: 5×10^5 CFU/mL
In short: (§1)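 LB broth cultures at McFarland 0.5, spun down, resuspended, diluted to 5×10^5 CFU/mL final. Two-fold serial dilutions of purified human EGF domain proteins, triplicate. 37° C, 175 rpm shaking. Endpoint: no visible growth.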

[2] = system: E. coli BL21; experiment: MIC against Gram-negative bacteria: E. coli BL21; settings: E. coli BL21, 5×10^5 CFU/mL
In short: as §1

[3] = system: Enterobacter cloacae; experiment: MIC against Gram-negative bacteria: Enterobacter cloacae; settings: 5×10^5 CFU/mL
In short: as §1

[4] = system: Klebsiella pneumonia; experiment: MIC against Gram-negative bacteria: Klebsiella pneumonia; settings: 5×10^5 CFU/mL
In short: as §1

[5] = system: Proteus vulgaris; experiment: MIC against Gram-negative bacteria: Proteus vulgaris; settings: 5×10^5 CFU/mL
In short: as §1

[6] = system: Pseudomonas aeruginosa; experiment: MIC against Gram-negative bacteria: Pseudomonas aeruginosa; settings: 5×10^5 CFU/mL
In short: as §1

[7] = system: Proteus mirabilis; experiment: MIC against Gram-negative bacteria: Proteus mirabilis; settings: 5×10^5 CFU/mL
In short: as §1

[8] = system: Serratia marcescens; experiment: MIC against Gram-negative bacteria: Serratia marcescens; settings: 5×10^5 CFU/mL
In short: as §1

[9] = system: Citrobacter diversus; experiment: MIC against Gram-negative bacteria: Citrobacter diversus; settings: 5×10^5 CFU/mL
In short: as §1

[10] = system: E. coli DH5α; experiment: Antibacterial activity: MIC and growth curve against E. coli DH5α in 96-well plate; settings: minimal inhibitory concentration against E. coli DH5α; 96-well plate, 5×10^5 CFU/mL, 37° C., judged after 8 h
In short: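 Log-phase DH5α (OD600 about 0.5, 37° C, 185 rpm in LB) was pelleted, resuspended in fresh LB and seeded at 5×10^5 CFU/mL with recombinant protein at 50, 25 and 12.5 μg/mL (two-fold series), in triplicate. Plates were shaken at 175 rpm, 37° C, and OD600 was read every 30 min. MIC was the lowest concentration with no growth.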

[11] = system: Aeromonas hydrophila; experiment: MIC against Gram-negative bacteria: Aeromonas hydrophila; settings: 5×10^5 CFU/mL
In short: as §1

[12] = Moraxella catarrhalis, 10 h cultivation at 37° C.
[13] = Enterobacter cloacae, 10 h cultivation at 37° C.
[14] = Klebsiella pneumonia, 10 h cultivation at 37° C.
[15] = Proteus vulgaris, 10 h cultivation at 37° C.
[16] = Pseudomonas aeruginosa, 10 h cultivation at 37° C.
[17] = Proteus mirabilis, 10 h cultivation at 37° C.
[18] = Serratia marcescens, 10 h cultivation at 37° C.
[19] = Citrobacter diversus, 10 h cultivation at 37° C.
[20] = Aeromonas hydrophila, 10 h cultivation at 37° C.
[21] = M. catarrhalis, 10 h cultivation at 37° C.
[22] = E. cloacae, 10 h cultivation at 37° C.
[23] = K. pneumonia, 10 h cultivation at 37° C.
[24] = P. vulgaris, 10 h cultivation at 37° C.
[25] = P. aeruginosa, 10 h cultivation at 37° C.
[26] = P. mirabilis, 10 h cultivation at 37° C.
[27] = S. marcescens, 10 h cultivation at 37° C.
[28] = C. diversus, 10 h cultivation at 37° C.
[29] = A. hydrophila, 10 h cultivation at 37° C.

Substance | MIC against M. catarrhalis [1, 12] | MIC against E. coli BL21 ([2]; 10 h cultivation at 37° C.) | MIC against E. cloacae [3, 13] | MIC against K. pneumonia [4, 14] | MIC against P. vulgaris [5, 15] | MIC against P. aeruginosa [6, 16] | MIC against P. mirabilis [7, 17] | MIC against S. marcescens [8, 18] | MIC against C. diversus [9, 19] | MIC [10] | MIC against A. hydrophila [11, 20] | MIC (μg/mL) M. catarrhalis [1, 21] | MIC (μg/mL) E. coli BL21 ([2]; 10 h cultivation at 37° C.) | MIC (μg/mL) E. cloacae [3, 22] | MIC (μg/mL) K. pneumonia [4, 23] | MIC (μg/mL) P. vulgaris [5, 24] | MIC (μg/mL) P. aeruginosa [6, 25] | MIC (μg/mL) P. mirabilis [7, 26] | MIC (μg/mL) S. marcescens [8, 27] | MIC (μg/mL) C. diversus [9, 28] | further results
PRT1363 (SEKRCPADCHNRGRCVDGRCECDDGFTGADCG; listed as Homo sapiens) | 50 µg/mL | 12.5 µg/mL | 50 µg/mL | 12.5 µg/mL | 12.5 µg/mL | 12.5 µg/mL | 25 µg/mL | 50 µg/mL | 25 µg/mL | 12.5 µg/mL | 12.5 µg/mL | – | – | – | – | – | – | – | – | – | –
PRT79 (LPDPCDSNPCPANSYCSNDWDSYSCSCDPGYYGDNC; listed as Homo sapiens) | – | – | – | – | – | – | – | – | – | 50 µg/mL | – | – | – | – | – | – | – | – | – | – | MIC (μg/mL) M. catarrhalis ([1]; Moraxella catarrhalis, 96-well plate, 37° C., 10 h): 12.5 µg/mL; MIC (μg/mL) E. coli BL21 ([2]; 96-well plate, 37° C., 10 h): 25 µg/mL; MIC (μg/mL) E. cloacae ([3]; Enterobacter cloacae, 96-well plate, 37° C., 10 h): 12.5 µg/mL; MIC (μg/mL) K. pneumonia ([4]; Klebsiella pneumonia, 96-well plate, 37° C., 10 h): 25 µg/mL; MIC (μg/mL) P. vulgaris ([5]; Proteus vulgaris, 96-well plate, 37° C., 10 h): 12.5 µg/mL; MIC (μg/mL) P. aeruginosa ([6]; Pseudomonas aeruginosa, 96-well plate, 37° C., 10 h): 12.5 µg/mL; MIC (μg/mL) P. mirabilis ([7]; Proteus mirabilis, 96-well plate, 37° C., 10 h): 50 µg/mL; MIC (μg/mL) S. marcescens ([8]; Serratia marcescens, 96-well plate, 37° C., 10 h): 50 µg/mL; MIC (μg/mL) C. diversus ([9]; Citrobacter diversus, 96-well plate, 37° C., 10 h): 12.5 µg/mL; MIC (μg/mL) A. hydrophila ([11]; Aeromonas hydrophila, 96-well plate, 37° C., 10 h): 25 µg/mL
PRT317 (VTDYCQLVRYLCQNGRCIPTPGSCRCECNKGFQLDLRGECI; listed as Homo sapiens) | – | – | – | – | – | – | – | – | – | 12.5 µg/mL | – | – | – | – | – | – | – | – | – | – | MIC [1, 21]: 25 µg/mL; MIC ([2]; 10 h cultivation at 37° C.): 50 µg/mL; MIC [3, 22]: 12.5 µg/mL; MIC [4, 23]: 50 µg/mL; MIC [5, 24]: 12.5 µg/mL; MIC [6, 25]: 12.5 µg/mL; MIC [7, 26]: 12.5 µg/mL; MIC [8, 27]: 12.5 µg/mL; MIC [9, 28]: 12.5 µg/mL; MIC [11, 29]: 25 µg/mL
PRT773 (PSNPCQDDPCADNSLCVKLHNTSFCLCLEGYYYNSSTCK; listed as Homo sapiens) | – | – | – | – | – | – | – | – | – | 50 µg/mL | – | 50 µg/mL | 25 µg/mL | 12.5 µg/mL | 50 µg/mL | 50 µg/mL | 12.5 µg/mL | 12.5 µg/mL | 12.5 µg/mL | 12.5 µg/mL | MIC (μg/mL) A. hydrophila [11, 29]: 50 µg/mL
PRT1379 (GWPSCPGDCQGRGRCVQGVCVCRAGFSGPDC; listed as Homo sapiens) | 25 µg/mL | 12.5 µg/mL | 50 µg/mL | 12.5 µg/mL | 25 µg/mL | 50 µg/mL | 50 µg/mL | 12.5 µg/mL | 12.5 µg/mL | 50 µg/mL | 25 µg/mL | – | – | – | – | – | – | – | – | – | –
PRT179 (RVDRCSLQPCRNGGLCLDLGHALRCRCRAGFAGPRCE; listed as Homo sapiens) | – | – | – | – | – | – | – | – | – | 50 µg/mL | – | 12.5 µg/mL | 25 µg/mL | 50 µg/mL | 25 µg/mL | 12.5 µg/mL | 12.5 µg/mL | 25 µg/mL | 12.5 µg/mL | 25 µg/mL | MIC (μg/mL) A. hydrophila [11, 29]: 12.5 µg/mL
